1 molecule from publication PMC3582901 (Angewandte Chemie (International ed. in English), 2011) can be followed below.

In general, Kd refers to the concentration at which binding is half-saturated.

The test addresses DYNLL1 (dynein light chain type 1) (Homo sapiens, UniProt P63167). Briefly: isothermal titration calorimetry. It counts as binding.

Sequence of DYNLL1 (dynein light chain type 1) (P63167 whole entry): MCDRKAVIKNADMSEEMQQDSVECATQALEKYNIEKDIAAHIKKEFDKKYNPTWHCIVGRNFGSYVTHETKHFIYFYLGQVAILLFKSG

In turn, `C=C(C)[C@@H](CC[C@]1(C)O[C@@H]([C@](C)(O)[C@@H]2CC[C@H]3O[C@@H]([C@]4(C)CC[C@@H](Br)C(C)(C)O4)CC[C@]3(C)O2)C[C@H]1O)OC` [1a, aplysqualenol A] showed a Kd of 0.84 ± 0.31 µM.
